Experimental data as given in PMC12120022, “Discovery and chemical optimisation of a potent, Bi-cyclic antimicrobial inhibitor of Escherichia coli PBP3” (Communications Biology, 2025).
Where a SMILES comes first, the peptide text is derived from it.

Each compound was assayed against T1, EcPBP3 (Escherichia coli, UniProt P0AD68) (assay: SPR binding assay on immobilised EcPBP3). Conditions: 37 °C, kinetic fitting; NB = no binding at 2500 nM (Tables S-4, S-5) or 5000 nM (Table 1); read-out: Kd (nM) by SPR (geomean).
T1 construct: For assays, selections and SPR a construct with residues 60–588 which has the N-terminal domain, but not the transmembrane helix, was used; made in house
Method: Surface plasmon resonance (SPR) assays were performed using EcPBP3 immobilized on CM5 sensor chips (GE Healthcare) via amine-coupling chemistry in assay buffer (10 mM HEPES pH 8.0, 200 mM NaCl, 0.05% (v/v) surfactant P20). The chip surface was activated by injection (10 μL min^–1) of 0.4 M EDC and 0.1 M NHS (in a 1:1 ratio) with a 7 min contact time. Protein was diluted to 25 μg mL^–1 in 10 mM MOPS (pH 7.0) and injected over the activated sensor chip surface to reach immobilization of 1500-2500 response units. Excess hydroxysuccinimidyl groups on the chip surface were deactivated by injection (10 μL min^–1) of 1 M ethanolamine hydrochloride pH 8.0 with a 7 min contact time. Reference flow cells were prepared as described, but without ligand (EcPBP3 protein).
Binding analysis runs were performed at 37 °C in running buffer (10 mM HEPES pH 8.0, 200 mM NaCl, 0.05% (w/v) Tween-20, 2% (v/v) DMSO). Test compounds (and control runs of buffer only) were injected in running buffer over the EcPBP3 chip and reference flow cell, at flow rate of 50 μL min^–1 for 150 s contact time and 2400 s dissociation time. Each injection was followed by a wash with 50% (v/v) DMSO. All compounds were tested in at least two independent biological replicates unless otherwise stated.
Raw sensorgrams data were solvent-corrected, reference-subtracted and blank-buffer-subtracted (double-referencing) before kinetic and affinity analysis to account for non-specific binding and injection artifacts. Equilibrium dissociation constant (Kd) values was determined using the Biacore™ Insight Evaluation Software (version 4.0.8 or version 5.0.17) using kinetic fitting. Kd values presented are the geometric mean of at least two biological replicates.

T1 sequence (P0AD68 60-588): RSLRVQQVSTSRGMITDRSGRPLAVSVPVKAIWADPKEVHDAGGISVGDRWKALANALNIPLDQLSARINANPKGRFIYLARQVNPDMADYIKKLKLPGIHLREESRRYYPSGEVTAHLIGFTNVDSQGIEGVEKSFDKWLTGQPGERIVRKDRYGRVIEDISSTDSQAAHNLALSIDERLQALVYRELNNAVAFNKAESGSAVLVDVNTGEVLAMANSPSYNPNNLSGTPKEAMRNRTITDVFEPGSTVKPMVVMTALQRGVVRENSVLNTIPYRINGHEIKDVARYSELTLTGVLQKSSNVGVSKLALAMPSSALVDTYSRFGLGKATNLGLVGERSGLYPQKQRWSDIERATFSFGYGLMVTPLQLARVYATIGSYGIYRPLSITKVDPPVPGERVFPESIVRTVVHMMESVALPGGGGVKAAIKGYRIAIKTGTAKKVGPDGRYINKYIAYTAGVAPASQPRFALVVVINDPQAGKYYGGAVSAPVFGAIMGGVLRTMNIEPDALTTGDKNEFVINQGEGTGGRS

Compound	Kd
CC(C)[C@@H]1NC(=O)[C@H](Cc2c[nH]c3ccccc23)NC(=O)[C@@H]2CCCN2C(=O)[C@@H]2CSCCC(=O)N3CN(CN(C3)C(=O)CCSC[C@H](NC(=O)[C@H](C)N)C(=O)N[C@@H](CO)C(=O)N[C@@H](Cc3ccccn3)C(=O)N3CCC[C@H]3C(=O)N[C@@H](CCCCN)C(=O)N2)C(=O)CCSC[C@@H](C(=O)N[C@@H](C)C(N)=O)NC(=O)CNC(=O)[C@H](CCC(=O)O)NC1=O [Peptide 60] (HELM PEPTIDE1{A.C.S.[O=C([C@H](Cc1ccccn1)N[*:1])[*:2]].P.K.C.P.W.V.E.G.C.A.[am]}|CHEM1{[O=C(CC[*:1])N1CN(C(=O)CC[*:2])CN(C(=O)CC[*:3])C1]}$PEPTIDE1,CHEM1,2:R3-1:R1|PEPTIDE1,CHEM1,7:R3-1:R2|PEPTIDE1,CHEM1,13:R3-1:R3$$$V2.0)	122 nM
CC(C)[C@@H]1NC(=O)[C@H](Cc2c[nH]c3ccccc23)NC(=O)[C@@H]2CCCN2C(=O)[C@@H]2CSCCC(=O)N3CN(CN(C3)C(=O)CCSC[C@H](NC(=O)[C@H](C)N)C(=O)N[C@@H](CO)C(=O)N[C@@H](Cc3ccncc3)C(=O)N3CCC[C@H]3C(=O)N[C@@H](CCCCN)C(=O)N2)C(=O)CCSC[C@@H](C(=O)N[C@@H](C)C(N)=O)NC(=O)CNC(=O)[C@H](CCC(=O)O)NC1=O [Peptide 59] (HELM PEPTIDE1{A.C.S.[O=C([C@H](Cc1ccncc1)N[*:1])[*:2]].P.K.C.P.W.V.E.G.C.A.[am]}|CHEM1{[O=C(CC[*:1])N1CN(C(=O)CC[*:2])CN(C(=O)CC[*:3])C1]}$PEPTIDE1,CHEM1,2:R3-1:R1|PEPTIDE1,CHEM1,7:R3-1:R2|PEPTIDE1,CHEM1,13:R3-1:R3$$$V2.0)	121 nM
CC(C)[C@@H]1NC(=O)[C@H](Cc2c[nH]c3ccccc23)NC(=O)[C@@H]2CCCN2C(=O)[C@@H]2CSCCC(=O)N3CN(CN(C3)C(=O)CCSC[C@H](NC(=O)[C@H](C)N)C(=O)N[C@@H](CO)C(=O)N[C@@H](Cc3cccc(F)c3)C(=O)N3CCC[C@H]3C(=O)N[C@@H](CCCCN)C(=O)N2)C(=O)CCSC[C@@H](C(=O)N[C@@H](C)C(N)=O)NC(=O)CNC(=O)[C@H](CCC(=O)O)NC1=O [Peptide 55]	16.8 nM
CC(C)[C@@H]1NC(=O)[C@H](Cc2c[nH]c3cc(F)ccc23)NC(=O)[C@@H]2CCCN2C(=O)[C@@H]2CSCCC(=O)N3CN(CN(C3)C(=O)CCSC[C@H](NC(=O)[C@H](C)N)C(=O)N[C@@H](CO)C(=O)N[C@@H](Cc3ccccc3)C(=O)N3CCC[C@H]3C(=O)N[C@@H](CCCCN)C(=O)N2)C(=O)CCSC[C@@H](C(=O)N[C@@H](C)C(N)=O)NC(=O)CNC(=O)[C@H](CCC(=O)O)NC1=O [Peptide 66]	0.489 nM
CC(C)[C@@H]1NC(=O)[C@H](Cc2c[nH]c3cc(Cl)ccc23)NC(=O)[C@@H]2CCCN2C(=O)[C@@H]2CSCCC(=O)N3CN(CN(C3)C(=O)CCSC[C@H](NC(=O)[C@H](C)N)C(=O)N[C@@H](CO)C(=O)N[C@@H](Cc3ccccc3)C(=O)N3CCC[C@H]3C(=O)N[C@@H](CCCCN)C(=O)N2)C(=O)CCSC[C@@H](C(=O)N[C@@H](C)C(N)=O)NC(=O)CNC(=O)[C@H](CCC(=O)O)NC1=O [Peptide 65]	0.269 nM
Cc1ccccc1C[C@@H]1NC(=O)[C@H](CO)NC(=O)[C@@H](NC(=O)[C@H](C)N)CSCCC(=O)N2CN3CN(C2)C(=O)CCSC[C@H](NC(=O)[C@H](CCCCN)NC(=O)[C@@H]2CCCN2C1=O)C(=O)N1CCC[C@H]1C(=O)N[C@@H](Cc1c[nH]c2ccccc12)C(=O)N[C@@H](C(C)C)C(=O)N[C@@H](CCC(=O)O)C(=O)NCC(=O)N[C@H](C(=O)N[C@@H](C)C(N)=O)CSCCC3=O [Peptide 57]	22.3 nM
CC(C)[C@@H]1NC(=O)[C@H](Cc2c[nH]c3ccccc23)NC(=O)[C@@H]2CCCN2C(=O)[C@@H]2CSCCC(=O)N3CN(CN(C3)C(=O)CCSC[C@H](NC(=O)[C@H](C)N)C(=O)N[C@@H](CO)C(=O)N[C@@H](Cc3ccccc3F)C(=O)N3CCC[C@H]3C(=O)N[C@@H](CCCCN)C(=O)N2)C(=O)CCSC[C@@H](C(=O)N[C@@H](C)C(N)=O)NC(=O)CNC(=O)[C@H](CCC(=O)O)NC1=O [Peptide 56]	56.6 nM
Cc1ccc(C[C@@H]2NC(=O)[C@H](CO)NC(=O)[C@@H](NC(=O)[C@H](C)N)CSCCC(=O)N3CN4CN(C3)C(=O)CCSC[C@H](NC(=O)[C@H](CCCCN)NC(=O)[C@@H]3CCCN3C2=O)C(=O)N2CCC[C@H]2C(=O)N[C@@H](Cc2c[nH]c3ccccc23)C(=O)N[C@@H](C(C)C)C(=O)N[C@@H](CCC(=O)O)C(=O)NCC(=O)N[C@H](C(=O)N[C@@H](C)C(N)=O)CSCCC4=O)cc1 [Peptide 58]	5.06 nM
COc1ccc2[nH]cc(C[C@@H]3NC(=O)[C@@H]4CCCN4C(=O)[C@@H]4CSCCC(=O)N5CN(CN(C5)C(=O)CCSC[C@H](NC(=O)[C@H](C)N)C(=O)N[C@@H](CO)C(=O)N[C@@H](Cc5ccccc5)C(=O)N5CCC[C@H]5C(=O)N[C@@H](CCCCN)C(=O)N4)C(=O)CCSC[C@@H](C(=O)N[C@@H](C)C(N)=O)NC(=O)CNC(=O)[C@H](CCC(=O)O)NC(=O)[C@H](C(C)C)NC3=O)c2c1 [Peptide 63]	175 nM
CC(C)[C@@H]1NC(=O)[C@H](Cc2c[nH]c3ccccc23)NC(=O)[C@@H]2CCCN2C(=O)[C@@H]2CSCCC(=O)N3CN(CN(C3)C(=O)CCSC[C@H](NC(=O)[C@H](C)N)C(=O)N[C@@H](CO)C(=O)N[C@@H](C)C(=O)N3CCC[C@H]3C(=O)N[C@@H](CCCCN)C(=O)N2)C(=O)CCSC[C@@H](C(=O)N[C@@H](C)C(N)=O)NC(=O)CNC(=O)[C@H](CCC(=O)O)NC1=O [Peptide 17]	> 2500 nM
C[C@H](N)C(=O)N[C@H]1CSCCC(=O)N2CN3CN(C2)C(=O)CCSC[C@H](NC(=O)[C@H](CCCCN)NC(=O)[C@@H]2CCCN2C(=O)[C@H](Cc2ccccc2)NC(=O)[C@H](CO)NC1=O)C(=O)N1CCC[C@H]1C(=O)N[C@@H](Cc1c[nH]c2ccccc12)C(=O)N[C@@H](C(C)(C)C)C(=O)N[C@@H](CCC(=O)O)C(=O)NCC(=O)N[C@H](C(=O)N[C@@H](C)C(N)=O)CSCCC3=O [Peptide 67] (HELM PEPTIDE1{A.C.S.F.P.K.C.P.W.[CC(C)(C)[C@H](N[*:1])C(=O)[*:2]].E.G.C.A.[am]}|CHEM1{[O=C(CC[*:1])N1CN(C(=O)CC[*:2])CN(C(=O)CC[*:3])C1]}$PEPTIDE1,CHEM1,2:R3-1:R1|PEPTIDE1,CHEM1,7:R3-1:R2|PEPTIDE1,CHEM1,13:R3-1:R3$$$V2.0)	574 nM
CC(C)[C@@H]1NC(=O)[C@H](Cc2c[nH]c3ccccc23)NC(=O)[C@@H]2CCCN2C(=O)[C@@H]2CSCCC(=O)N3CN(CN(C3)C(=O)CCSC[C@H](NC(=O)[C@H](C)N)C(=O)N[C@@H](CO)C(=O)N[C@@H](CCc3ccccc3)C(=O)N3CCC[C@H]3C(=O)N[C@@H](CCCCN)C(=O)N2)C(=O)CCSC[C@@H](C(=O)N[C@@H](C)C(N)=O)NC(=O)CNC(=O)[C@H](CCC(=O)O)NC1=O [Peptide 61]	232 nM
CC(C)[C@@H]1NC(=O)[C@H](Cc2cnc3ccccc3c2)NC(=O)[C@@H]2CCCN2C(=O)[C@@H]2CSCCC(=O)N3CN(CN(C3)C(=O)CCSC[C@H](NC(=O)[C@H](C)N)C(=O)N[C@@H](CO)C(=O)N[C@@H](Cc3ccccc3)C(=O)N3CCC[C@H]3C(=O)N[C@@H](CCCCN)C(=O)N2)C(=O)CCSC[C@@H](C(=O)N[C@@H](C)C(N)=O)NC(=O)CNC(=O)[C@H](CCC(=O)O)NC1=O [Peptide 62]	27 nM
CC(C)[C@@H]1NC(=O)[C@H](Cc2c[nH]c3ccccc23)NC(=O)[C@H](C)NC(=O)[C@@H]2CSCCC(=O)N3CN(CN(C3)C(=O)CCSC[C@H](NC(=O)[C@H](C)N)C(=O)N[C@@H](CO)C(=O)N[C@@H](Cc3ccccc3)C(=O)N3CCC[C@H]3C(=O)N[C@@H](CCCCN)C(=O)N2)C(=O)CCSC[C@@H](C(=O)N[C@@H](C)C(N)=O)NC(=O)CNC(=O)[C@H](CCC(=O)O)NC1=O [Peptide 20]	1380 nM
CC(C)[C@@H]1NC(=O)[C@H](Cc2c[nH]c3ccccc23)NC(=O)[C@@H]2CCCN2C(=O)[C@@H]2CSCCC(=O)N3CN(CN(C3)C(=O)CCSC[C@H](NC(=O)[C@H](C)N)C(=O)N[C@@H](CO)C(=O)N[C@@H](Cc3c(F)c(F)c(F)c(F)c3F)C(=O)N3CCC[C@H]3C(=O)N[C@@H](CCCCN)C(=O)N2)C(=O)CCSC[C@@H](C(=O)N[C@@H](C)C(N)=O)NC(=O)CNC(=O)[C@H](CCC(=O)O)NC1=O [Peptide 54]	701 nM
C[C@H](N)C(=O)N[C@H]1CSCCC(=O)N2CN3CN(C2)C(=O)CCSC[C@H](NC(=O)[C@H](CCCCN)NC(=O)[C@@H]2CCCN2C(=O)[C@H](Cc2ccccc2)NC(=O)[C@H](CO)NC1=O)C(=O)N1CCC[C@H]1C(=O)N[C@@H](Cc1c[nH]c2ccccc12)C(=O)N[C@@H](C1CCC1)C(=O)N[C@@H](CCC(=O)O)C(=O)NCC(=O)N[C@H](C(=O)N[C@@H](C)C(N)=O)CSCCC3=O [Peptide 68] (HELM PEPTIDE1{A.C.S.F.P.K.C.P.W.[O=C([C@@H](N[*:1])C1CCC1)[*:2]].E.G.C.A.[am]}|CHEM1{[O=C(CC[*:1])N1CN(C(=O)CC[*:2])CN(C(=O)CC[*:3])C1]}$PEPTIDE1,CHEM1,2:R3-1:R1|PEPTIDE1,CHEM1,7:R3-1:R2|PEPTIDE1,CHEM1,13:R3-1:R3$$$V2.0)	187 nM

Same assay, conditions: hydrophobic extension of Trp6, relative to parent peptide

Compound	Improvement in binding affinity
CC(C)[C@@H]1NC(=O)[C@H](Cc2c[nH]c3cc(F)ccc23)NC(=O)[C@@H]2CCCN2C(=O)[C@@H]2CSCCC(=O)N3CN(CN(C3)C(=O)CCSC[C@H](NC(=O)[C@H](C)N)C(=O)N[C@@H](CO)C(=O)N[C@@H](Cc3ccccc3)C(=O)N3CCC[C@H]3C(=O)N[C@@H](CCCCN)C(=O)N2)C(=O)CCSC[C@@H](C(=O)N[C@@H](C)C(N)=O)NC(=O)CNC(=O)[C@H](CCC(=O)O)NC1=O [Peptide 66]	More than 10 fold
CC(C)[C@@H]1NC(=O)[C@H](Cc2c[nH]c3cc(Cl)ccc23)NC(=O)[C@@H]2CCCN2C(=O)[C@@H]2CSCCC(=O)N3CN(CN(C3)C(=O)CCSC[C@H](NC(=O)[C@H](C)N)C(=O)N[C@@H](CO)C(=O)N[C@@H](Cc3ccccc3)C(=O)N3CCC[C@H]3C(=O)N[C@@H](CCCCN)C(=O)N2)C(=O)CCSC[C@@H](C(=O)N[C@@H](C)C(N)=O)NC(=O)CNC(=O)[C@H](CCC(=O)O)NC1=O [Peptide 65]	More than 10 fold
